Reference: publication PMC7670487 (ACS Infectious Diseases, 2020)
Where two headings read alike, the source gives them in different places.

Assays:
[1] = Cytotoxicity against mammalian cells (MTT); assay type: cell-based, murine; details: mouse, NCTC clone 929 fibroblast cells; NCTC clone 929 cells, 48 h, 200–1.56 μM, MTT
Description: (§1) Macrophages were collected from the peritoneal cavity of BALB/c mice by washing them with RPMI-1640 medium supplemented with 10% fetal calf serum and were maintained at 37 °C in a 5% CO2 humidified incubator. Trypomastigotes of T. cruzi (Y strain) were maintained in Rhesus monkey kidney cells (LLC-MK2, ATCC CCL 7) and cultivated in RPMI-1640 medium supplemented with 2% fetal calf serum at 37 °C in a 5% CO2 humidified incubator. Murine conjunctive cells (NCTC clone 929, ATCC) were maintained in RPMI-1640 supplemented with 10% FBS at 37 °C in a 5% CO2 humidified incubator.[20] […] The selectivity index (SI) was determined as CC50/IC50 against amastigotes. IC50 and CC50 values were calculated using a sigmoid dose–response curve in GraphPad Prism 6.0 software (GraphPad Software, San Diego, CA, USA). The assays were repeated at least twice, and the samples were tested in duplicate.

[2] = test system: Fibroblast NCTC cells (clone 929); assay: Cytotoxicity against mammalian cells (MTT); assay type: cell-based, murine; details: for SI (selectivity index): ratio between CC50 in NCTC cells and IC50 in intracellular amastigotes; for CC50 (μM) ± SD: NCTC clone 929 cells, 48 h, 200–1.56 μM, MTT
Description: as §1

[3] = test system: T. cruzi (Y strain) trypomastigotes; assay: Antitrypomastigote assay (resazurin viability); assay type: cell-based; details: Trypanosoma cruzi, LLC-MK2-derived trypomastigotes, 24 h incubation, up to 100 μM, read-out: IC50 (μM) ± SD trypomastigote
Description: Our attention next turned to an evaluation of the activity of the various natural product analogues against T. cruzi amastigotes (evaluated microscopically using an ex vivo intracellular model with mice macrophages)[20] and trypomastigotes (resazurin in vitro assay).[30] […] Macrophages were collected from the peritoneal cavity of BALB/c mice by washing them with RPMI-1640 medium supplemented with 10% fetal calf serum and were maintained at 37 °C in a 5% CO2 humidified incubator. Trypomastigotes of T. cruzi (Y strain) were maintained in Rhesus monkey kidney cells (LLC-MK2, ATCC CCL 7) and cultivated in RPMI-1640 medium supplemented with 2% fetal calf serum at 37 °C in a 5% CO2 humidified incubator. Murine conjunctive cells (NCTC clone 929, ATCC) were maintained in RPMI-1640 supplemented with 10% FBS at 37 °C in a 5% CO2 humidified incubator.[20] LLC-MK2-derived trypomastigotes were seeded (1 × 10^6 cells/well) in 96-well plates and incubated with the compounds serially diluted 2-fold (up to 100 μM) for 24 h in RPMI 1640 medium at 37 °C in a 5% CO2 humidified incubator. Subsequently, resazurin (0.011% in PBS) was added for 24 h to check the parasite viability.[30] The optical density was determined in the FilterMax F5 (Molecular Devices) at 570 nm. Benznidazole was used as the standard. IC50 and CC50 values were calculated using a sigmoid dose–response curve in GraphPad Prism 6.0 software (GraphPad Software, San Diego, CA, USA). The assays were repeated at least twice, and the samples were tested in duplicate.

T. cruzi amastigotes [4] = assay: Antiamastigote assay (intracellular, infected peritoneal macrophages, infection index by microscopy); assay type: cell-based, Trypanosoma cruzi; details: for IC50: Trypanosoma cruzi, Peritoneal macrophage, in Mus musculus, intracellular amastigotes in BALB/c peritoneal macrophages, 48 h, 30–0.23 μM, read-out: IC50 (μM) ± SD amastigote
Description: Our attention next turned to an evaluation of the activity of the various natural product analogues against T. cruzi amastigotes (evaluated microscopically using an ex vivo intracellular model with mice macrophages)[20] and trypomastigotes (resazurin in vitro assay).[30] […] Macrophages were collected from the peritoneal cavity of BALB/c mice by washing them with RPMI-1640 medium supplemented with 10% fetal calf serum and were maintained at 37 °C in a 5% CO2 humidified incubator. Trypomastigotes of T. cruzi (Y strain) were maintained in Rhesus monkey kidney cells (LLC-MK2, ATCC CCL 7) and cultivated in RPMI-1640 medium supplemented with 2% fetal calf serum at 37 °C in a 5% CO2 humidified incubator. Murine conjunctive cells (NCTC clone 929, ATCC) were maintained in RPMI-1640 supplemented with 10% FBS at 37 °C in a 5% CO2 humidified incubator.[20] Peritoneal macrophages (1 × 10^5 cells/well), collected from the peritoneal cavity of the BALB/c mice, were seeded in 16-well chamber slides (NUNC, Thermo Fisher Scientific) and infected with trypomastigotes (10:1, parasite/macrophage ratio). After 2 h, the compounds (in concentrations of 30–0.23 μM) were incubated with infected macrophages for 48 h at 37 °C in a 5% CO2 humidified incubator. The slides were fixed with MeOH, stained with Giemsa, and observed under a light microscope (EVOS M5000, Termo, USA) with digital image equipment. […] IC50 and CC50 values were calculated using a sigmoid dose–response curve in GraphPad Prism 6.0 software (GraphPad Software, San Diego, CA, USA). The assays were repeated at least twice, and the samples were tested in duplicate.

T. cruzi amastigotes [5] = details: T. cruzi intracellular amastigotes; read-out: IC50 (μM) ± SD amastigote; cited from earlier work
[6] = test system: Fibroblast NCTC cells (clone 929); details: cited from earlier work

| SMILES | CC50 at 48 h [1] [µM] | SI (selectivity index) [2] | IC50 [3] [µM] | IC50 (T. cruzi amastigotes [4]) [µM] | fold more potent than the natural product 1 against the amastigotes (T. cruzi amastigotes [4]; relative to compound 1, amastigote IC50) | IC50 (T. cruzi amastigotes [5]) [µM] | CC50 ([6]; NCTC cells) [µM] | SI (selectivity index) ([6]; ratio between CC50 in NCTC cells and IC50 in intracellular amastigotes) | CC50 (μM) ± SD [2] |
| --- | --- | --- | --- | --- | --- | --- | --- | --- | --- |
| C=CCc1ccc(Oc2cc(CC=C)cc(OC)c2OCOC)c(OC)c1 [Compound 5] | > 200 | >8.2 | 6.5 ± 4.9 | 24.4 ± 10.3 | – | – | – | – | – |
| C=CCc1ccc(Oc2cc(CC=C)cc(OC)c2OCc2ccc(OC)cc2)c(OC)c1 [Compound 6] | > 200 | >50 | – | 4 ± 1.4 | approximately 20 fold | – | – | – | – |
| CCCc1ccc(Oc2cc(CCC)cc(OC)c2OC)c(OC)c1 [Compound 9] | – | – | – | – | – | 13.3 ± 1.2 | > 200 | >15.0 | – |
| CCCc1ccc(Oc2cc(CCC)cc(OC)c2OCc2ccc(OC)cc2)c(OC)c1 [Compound 10] | > 200 | >36.4 | – | 5.5 ± 3.5 | – | – | – | – | – |
| C=CCc1cc(OC)c(OC)c(Oc2ccc(CCC)cc2OC)c1 [Compound 11] | > 200 | >17.1 | 21.9 ± 6.1 | 11.7 ± 7 | – | – | – | – | – |
| C=CCc1cc(OC)c(OCc2ccc(OC)cc2)c(Oc2ccc(CCC)cc2OC)c1 [Compound 12] | > 200 | >23.3 | – | 8.6 ± 2.1 | – | – | – | – | – |
| C=CCc1cc(OC)c(O)c(Oc2ccc(CCC)cc2OC)c1 [Compound 13] | 42 ± 3.8 | 2.5 | 7.6 ± 1.9 | 16.6 ± 1 | – | – | – | – | significant mammalian toxicity |
| C=CCc1ccc(Oc2cc(CC=C)cc(OC)c2OCc2ccc(OC)cc2)cc1 [Compound 14] | > 200 | >18.2 | – | 11 ± 2.3 | – | – | – | – | – |
| C=CCc1ccc(Oc2cc(CC=C)cc(OC)c2O)cc1 [Compound 15, 3-methylobovatol] | 123 ± 9.4 | 5.5 | 4.6 ± 3 | 22.5 ± 18.8 | – | – | – | – | – |
| C=CCc1cc(OC)c(OC)c(Oc2ccccc2OC)c1 [Compound 16] | > 200 | – | 20.3 ± 0.4 | – | – | – | – | – | – |
| C=CCc1cc(OC)c(OCc2ccc(OC)cc2)c(Oc2ccccc2OC)c1 [Compound 17] | > 200 | – | – | – | – | – | – | – | – |
| C=CCc1ccc(Oc2cc(CCC)cc(OC)c2OCc2ccc(OC)cc2)c(OC)c1 [Compound 18] | > 200 | >14.9 | – | 13.4 ± 5.4 | – | – | – | – | – |
| C=CCc1ccc(Oc2cc(CCC)cc(OC)c2O)c(OC)c1 [Compound 19] | 14.2 ± 0.1 | 1.3 | 4.6 ± 3.8 | 10.5 ± 8.3 | – | – | – | – | significant mammalian toxicity |
| C=CCc1ccc(Oc2cccc(OC)c2OC)c(OC)c1 [Compound 20] | > 200 | >7.8 | 63.1 ± 6.2 | 25.7 ± 12.2 | – | – | – | – | – |
| C=CCc1ccc(Oc2cccc(OC)c2OCc2ccc(OC)cc2)c(OC)c1 [Compound 21] | > 200 | – | – | – | – | – | – | – | – |
| C=CCOc1c(OC)cccc1Oc1ccc(CC=C)cc1OC [Compound 22] | > 200 | – | – | – | – | – | – | – | – |
| C=CCc1ccc(O)c(Oc2ccc(CC=C)cc2OC)c1 [Compound 23] | 129 ± 5.2 | 16.7 | 2.5 ± 1.3 | 7.7 ± 1.3 | – | – | – | – | – |
| C=CCc1ccc(Oc2cc(CC=C)ccc2OCc2ccc(OC)cc2)c(OC)c1 [Compound 24] | > 200 | >17.2 | – | 11.6 ± 8.4 | – | – | – | – | – |
| C=CCc1cc(OC)cc(Oc2ccc(CC=C)cc2OC)c1 [Compound 25] | > 200 | >18.3 | – | 10.9 ± 6.5 | – | – | – | – | – |
| O=C(Cn1ccnc1[N+](=O)[O-])NCc1ccccc1 [benznidazole, reference compound] | 191 ± 13.4 | 38.1 | 17.7 ± 1.9 | 5 ± 1.5 | – | – | – | – | – |
